In US5053070A, “Pyrimidine derivatives, preparation processes thereof, herbicide containing the same, and herbicidal compositions containing the same along with other active ingredient” (Mitsui Toatsu Chemicals, Incorporated, priority 1988, dated 1991):
≈ marks a conversion by molar mass, not a printed value.

Experiments:
soybean [1] = assay: Upland foliar application test (Test 3), crop injury; type: in vivo; conditions: 30 g ai/a, foliar spray at 2-3 leaves, 30th day
Method in brief: (§1)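 Scores record the degree of damage to weeds and injury to crops, observed 30 days after treatment. Each species was seeded in pots of upland-field soil and raised under glass to 2-3 leaves, then its foliage was sprayed with diluted compound emulsion at 5 l per are.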

cotton [2] = assay: as above; type: in vivo; conditions: 30 g ai/a, foliar spray at 2-3 leaves, 30th day
Method in brief: as §1

peanut [3] = assay: as above; type: in vivo; conditions: 30 g ai/a, foliar spray at 2-3 leaves, 30th day
Method in brief: as §1

soybean [4] = assay: Upland soil application test (Test 2), crop injury; type: in vivo; conditions: 30 g ai/a, soil spray before emergence, 30 days later
Method in brief: (§2)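 Pre-emergence soil spray, greenhouse. Weed seeds mixed through upland soil; crops sown alongside. Day 1 post-sowing: wettable-powder formulation, water-diluted, applied at 10 l/are by pressure ULV sprayer. Read at 30 days as air-dried weight vs untreated pots, scored on a graded damage scale.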

cotton [5] = assay: Upland soil application test (Test 2), crop injury; type: in vivo; conditions: 30 g ai/a, soil spray before emergence, 30 days later
Method in brief: as §2

peanut [6] = assay: Upland soil application test (Test 2), crop injury; type: in vivo; conditions: 30 g ai/a, soil spray before emergence, 30 days later
Method in brief: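 Weeds are grown from seed incorporated in upland field soil under greenhouse conditions and treated pre-emergence, one day after sowing, with a water-diluted wettable powder of each compound. Effect is scored after 30 days from air-dried weight relative to untreated pots.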

narrowleaf waterplantain = assay: Petri dish test (Test 6); type: in vivo; conditions: 336 h; seeds on filter paper, 25° C., 14 days; read-out: I80 (ppm)
Method in brief: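 Narrowleaf waterplantain seeds placed on filter paper pre-treated with compound in acetone (solvent air-dried) in 9 cm Petri dishes with 10 ml water, grown at 25° C in light. Growth was scored after fourteen days as degree of damage against an untreated group.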

barnyardgrass = assay: Treatment of soil under submerged condition, post-emergence (Test 5); type: in vivo; conditions: 30 g ai/a granule, post-emergence (barnyardgrass two-leaf stage), 30 days later
Method in brief: (§3)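 Weeds seeded or tubers planted in flooded soil in Wagner pots, with 2–3-leaf rice seedlings transplanted in pairs and grown in greenhouse. At barnyardgrass two-leaf stage, pots received a granule of the test composition at a predetermined amount. Weed emergence and rice injury were scored 30 days later.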

Sagittaria pygmaea = assay: as above; type: in vivo; conditions: 30 g ai/a granule, 30 days later
Method in brief: as §3

bulrush = assay: as above; type: in vivo; conditions: 30 g ai/a granule, 30 days later
Method in brief: as §3

[7] = test system: ALS (acetolactate syntase); assay: ALS enzyme assay (Test 1); type: biochemical, barnyardgrass; conditions: 1,000 ppm (0.5 mg/0.5 ml)
Method in brief: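 Partially purified ALS from dark-grown pea and barnyardgrass seedlings incubated 1 h at 30° C with pyruvate, TPP, MgCl2 and FAD. Compounds tested at 1,000 ppm (0.5 mg/0.5 ml). Acetoin formed detected colorimetrically at 525 nm via creatine/α-naphthol, relative to blank and acid-stopped controls.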

rice = assay: Treatment of soil under submerged condition, post-emergence (Test 5), injury; type: in vivo; conditions: 30 g ai/a granule, 30 days later
Method in brief: as §3

Compound | Injury Soybean (soybean [1]) | Injury Cotton (cotton [2]) | Injury Peanut (peanut [3]) | Injury Soybean (soybean [4]) | Injury Cotton (cotton [5]) | Injury Peanut (peanut [6]) | IC80 (narrowleaf waterplantain) [mg/L] | Herbicidal effects Barnyardgrass (barnyardgrass) | Herbicidal effects Sagittaria Pygmaea (Sagittaria pygmaea) | Herbicidal effects Bulrush (bulrush) | Inhibitory activity (%) Barnyardgrass [7] [%] | Injury Rice (rice)
COc1cc(OC)nc(Oc2ccccc2C=NOCC=Cc2ccc(F)cc2)n1 [compound 29] | 0 (91-100 (No damages)) | 0 (91-100 (No damages)) | 0 (91-100 (No damages)) | 0 (91-100 (No damages)) | 0 (91-100 (No damages)) | 0 (91-100 (No damages)) | 8 (≈ 19.5 µM) | 5 (0-5 (Death)) | 4 (6-10 (Severe damages)) | 4 (6-10 (Severe damages)) | 98 | 1 (71-90 (Slight damages))
COc1cc(OC)nc(Oc2ccccc2C=NOCC=Cc2ccc(Cl)cc2Cl)n1 [compound 30] | 0 (91-100 (No damages)) | 0 (91-100 (No damages)) | 0 (91-100 (No damages)) | 0 (91-100 (No damages)) | 0 (91-100 (No damages)) | 0 (91-100 (No damages)) | 2 (≈ 4.34 µM) | 5 (0-5 (Death)) | 4 (6-10 (Severe damages)) | 4 (6-10 (Severe damages)) | 97 | 0 (91-100 (No damages))
COc1cc(OC)nc(Oc2ccccc2C=NOCC=Cc2ccc(Cl)c(Cl)c2)n1 [compound 31] | 0 (91-100 (No damages)) | 0 (91-100 (No damages)) | 0 (91-100 (No damages)) | 0 (91-100 (No damages)) | 0 (91-100 (No damages)) | 0 (91-100 (No damages)) | 2 (≈ 4.34 µM) | 5 (0-5 (Death)) | 4 (6-10 (Severe damages)) | 4 (6-10 (Severe damages)) | 90 | 0 (91-100 (No damages))
COc1cc(OC)nc(Oc2ccccc2C=NOCC=Cc2ccccc2C(F)(F)F)n1 [compound 32] | 0 (91-100 (No damages)) | 0 (91-100 (No damages)) | 0 (91-100 (No damages)) | 0 (91-100 (No damages)) | 0 (91-100 (No damages)) | 0 (91-100 (No damages)) | 4 (≈ 8.71 µM) | 5 (0-5 (Death)) | 4 (6-10 (Severe damages)) | 4 (6-10 (Severe damages)) | 91 | 1 (71-90 (Slight damages))
COc1cc(OC)nc(Oc2ccccc2C=NOCC=Cc2c(F)cccc2F)n1 [compound 33] | 0 (91-100 (No damages)) | 0 (91-100 (No damages)) | 0 (91-100 (No damages)) | 0 (91-100 (No damages)) | 0 (91-100 (No damages)) | 0 (91-100 (No damages)) | 8 (≈ 18.7 µM) | 5 (0-5 (Death)) | 4 (6-10 (Severe damages)) | 5 (0-5 (Death)) | 91 | 1 (71-90 (Slight damages))
COc1cc(OC)nc(Oc2ccccc2C=NOCC=Cc2ccc(C(F)(F)F)cc2)n1 [compound 35] | 0 (91-100 (No damages)) | 0 (91-100 (No damages)) | 0 (91-100 (No damages)) | 0 (91-100 (No damages)) | 0 (91-100 (No damages)) | 0 (91-100 (No damages)) | 6 (≈ 13.1 µM) | 5 (0-5 (Death)) | 3 (11-40 (Medium damages)) | 4 (6-10 (Severe damages)) | 89 | 0 (91-100 (No damages))
COc1cc(OC)nc(Oc2ccccc2C=NOCC=Cc2ccc(C)cc2)n1 [compound 36] | 0 (91-100 (No damages)) | 0 (91-100 (No damages)) | 0 (91-100 (No damages)) | 0 (91-100 (No damages)) | 0 (91-100 (No damages)) | 0 (91-100 (No damages)) | 4 (≈ 9.87 µM) | 5 (0-5 (Death)) | 4 (6-10 (Severe damages)) | 5 (0-5 (Death)) | 92 | 1 (71-90 (Slight damages))
CCc1ccc(C=CCON=Cc2ccccc2Oc2nc(OC)cc(OC)n2)cc1 [compound 37] | 0 (91-100 (No damages)) | 0 (91-100 (No damages)) | 0 (91-100 (No damages)) | 0 (91-100 (No damages)) | 0 (91-100 (No damages)) | 0 (91-100 (No damages)) | 2 (≈ 4.77 µM) | 5 (0-5 (Death)) | 4 (6-10 (Severe damages)) | 5 (0-5 (Death)) | 93 | 1 (71-90 (Slight damages))
COc1cccc(C=CCON=Cc2ccccc2Oc2nc(OC)cc(OC)n2)c1 [compound 38] | 0 (91-100 (No damages)) | 0 (91-100 (No damages)) | 0 (91-100 (No damages)) | 0 (91-100 (No damages)) | 0 (91-100 (No damages)) | 0 (91-100 (No damages)) | 2 (≈ 4.75 µM) | 5 (0-5 (Death)) | 4 (6-10 (Severe damages)) | 5 (0-5 (Death)) | 91 | 1 (71-90 (Slight damages))
COc1cc(OC)nc(Oc2ccccc2C=NOCC=Cc2ccccc2Br)n1 [compound 40] | 0 (91-100 (No damages)) | 0 (91-100 (No damages)) | 0 (91-100 (No damages)) | 0 (91-100 (No damages)) | 0 (91-100 (No damages)) | 0 (91-100 (No damages)) | 2 (≈ 4.25 µM) | 5 (0-5 (Death)) | 4 (6-10 (Severe damages)) | 4 (6-10 (Severe damages)) | 94 | 1 (71-90 (Slight damages))
COc1cc(OC)nc(Oc2ccccc2C=NOCC=Cc2cccc(Cl)c2Cl)n1 [compound 41] | 0 (91-100 (No damages)) | 0 (91-100 (No damages)) | 0 (91-100 (No damages)) | 0 (91-100 (No damages)) | 0 (91-100 (No damages)) | 0 (91-100 (No damages)) | 2 (≈ 4.34 µM) | 5 (0-5 (Death)) | 4 (6-10 (Severe damages)) | 4 (6-10 (Severe damages)) | 89 | 0 (91-100 (No damages))
COc1cc(OC)nc(Oc2ccccc2C=NOCC#Cc2ccccc2)n1 [compound 42] | 0 (91-100 (No damages)) | 0 (91-100 (No damages)) | 0 (91-100 (No damages)) | 0 (91-100 (No damages)) | 0 (91-100 (No damages)) | 0 (91-100 (No damages)) | 17 (≈ 43.7 µM) | 5 (0-5 (Death)) | 5 (0-5 (Death)) | 4 (6-10 (Severe damages)) | 93 | 0 (91-100 (No damages))
